{"source": "patent US6294542A", "about": "“Pyrimidinone compounds, pharmaceutical compositions containing the compounds and the process for preparing the same” (Boryung Pharmaceutical Co. Ltd., priority 1998, dated 2001)", "key": {"[1]": {"test_system": "Angiotensin II-induced pressor response", "test": "In vivo Angiotensin II antagonism in conscious normotensive rats", "details": "Rattus norvegicus, po; P.O.; conscious normotensive male SD rats; Angiotensin II 0.1 μg/kg; read-out: ID50 (dose of test compound necessary to produce 50% inhibition of Angiotensin II-induced pressor response)", "procedure": "The antagonistic activity of the compound (I) against the angiotensin II, which is prepared by the process according to a preferred embodiment of the invention, was evaluated with relation to rats.\nIn vivo Angiotensin II antagonism in conscious normotensive rats.\nMale SD rats (Charles River Japan, 9 weeks, 300-350 g) were anesthetized with pentobarbital at 50 mg/kg i.p. Both the left femoral artery and the right femoral vein were cannulated. A heparin-filled catheter (50U/ml) was tunneled subcutaneously (s.c.) to the dorsal side of the neck and exteriorized.\nRats were permitted to recover overnight from anesthesia and allowed free access to water, but food was withheld.\nThe next day, the femoral artery catheter was connected to a pressure transducer (COBE 041-500-508, USA) coupled to a polygraph (GRASS Model 7, USA) to monitor arterial blood pressure. After an appropriate equilibration period, Angiotensin II (0.1 μg/kg) was injected in the femoral vein three times during the control period.\nTest compounds were then administered orally (p.o.) at a constant volume of 2 ml/kg.\nAngiotensin II challenges were repeated at set times thereafter.\nID50 values, the dose of test compound necessary to produce 50% inhibition of Angiotensin II-induced pressor response, were calculated from peak inhibition percentage with several doses of test compound."}, "[2]": {"test": "Acute Toxicity Test (oral, mice)", "type": "in vivo", "details": "for LD50: mouse, in vivo, po", "procedure": "Respective 5 mice of ICR system, which was distributed from Korean Laboratory Animal Center, were bred in a polycarbonate breeding box at a breeding environment of 23±1° C. of temperature, 55±5% of humidity, 10-15 times/hr of evacuation, 12 hr cycle of fluorescent light luminance, and 150-300 Lux of illumination.\nAfter observing the mice for one week of acclimation breeding period, only normal mice were selected for laboratory work. The mice were fed with sterilized feed for laboratory animals, which was made by Cheil Jedang Co.,Ltd, and supplied with purified water to drink.\nDuring the acclimation period, mice, who were evaluated to be healthy, were weighed and divided into groups randomly. Individual identification of laboratory animals was performed by indumentum pigment display and tag display per breeding box.\nEstablishment of dose was carried out according to a result of preliminary test in such a manner that a maximum dose group for both male and female was set to 5000 mg/kg and azeotropy was set to 1.71. Medium-high, medium and medium-low dose groups were respectively set as follows and a control group was administrated with physiological saline for injection.\nBefore administration of testing substances, body weight of the laboratory animals was in the range of 24-28 g in case of male and in the range of 19-28 g in case of female, respectively. The laboratory animals were aged 6 weeks.\nPreparation of the testing substances was dissolved in physiological saline before administration. Dose was calculated according to the body weight which was measured before administration and dispensed by oral administration to a mouse who was in abrosia for 18 hours before testing.\nObservation of clinical symptom such as general change, toxic symptom and mortality was performed for all laboratory animals once an hour during 6 hours after administration on the very administration day, and once a day from the next day to 14th day of administration.\nAdministration group, who was administered with testing substances, and the control group were weighed on the administration day, first, third, seventh, tenth and fourteenth days from the administration at a predetermined time for all animals who were alive.\nAfter finish of the test, all animals were slightly anesthetized with ether and bleeding-killed. Appearance and internal organs of the animals were examined with naked eye carefully. Animals, who died during the text, were examined in the same manner."}}}
{"smiles": "CCCCc1nc(C)c(CC(=S)N2CCC2)c(=O)n1Cc1ccc(-c2ccccc2-c2nn[nH]n2)cc1", "note": "[Compound 9, 2-n-butyl-5-azetidinothiocarbonylmethyl-6-methyl-3-[[2'-(1H-tetrazol-5-yl)-biphenyl-4-yl]methyl]-pyrimidine-4 (3H)-one]", "values": [{"measurement": "ED50", "setting": "[1]", "value": 1.19, "unit": "mg/kg"}]}
{"smiles": "CCCCc1nc(C)c(CC(=S)N2CCSCC2)c(=O)n1Cc1ccc(-c2ccccc2-c2nn[nH]n2)cc1", "note": "[Compound 5, 2-n-butyl-5-thiomorpholynothiocarbonylmethyl-6-methyl-3-[[2'-(1H-tetrazol-5-yl)-biphenyl-4-yl]methyl]-pyrimidine-4(3H)-one]", "values": [{"measurement": "ED50", "setting": "[1]", "value": "< 3", "unit": "mg/kg"}]}
{"smiles": "CCCCc1nc(C)c(CC(=S)N2CCCCC2)c(=O)n1Cc1ccc(-c2ccccc2-c2nnn[nH]2)cc1", "note": "[Compound 7, 2-n-butyl-5-piperidinothiocarbonylmethyl-6-methyl-3-[[2 '-(1H-tetrazol-5-yl)-biphenyl-4-yl]methyl]-pyrimidine-4(3H)-one]", "values": [{"measurement": "ED50", "setting": "[1]", "value": "< 3", "unit": "mg/kg"}]}
{"smiles": "CCCCc1nc(C)c(CC(N)=S)c(=O)n1Cc1ccc(-c2ccccc2-c2nnn[nH]2)cc1", "note": "[Compound 1, 2-n-butyl-5-aminothiocarbonylmethyl-6-methyl-3-[[2'-(1H-tetrazol-5-yl)biphenyl-4-yl]methyl]-pyrimidine-4(3H)-one]", "values": [{"measurement": "ED50", "setting": "[1]", "value": "> 3", "unit": "mg/kg"}]}
{"smiles": "CCCCc1nc(C)c(CC(=S)N2CCCCCCC2)c(=O)n1Cc1ccc(-c2ccccc2-c2nn[nH]n2)cc1", "note": "[Compound 4, 2-n-butyl-5-heptamethyleniminothiocarbonyl-methyl-6-methyl-3-[[2'-(1H-tetrazol-5-yl)biphenyl-4-yl]methyl]-pyrimidine-4(3H)-one]", "values": [{"measurement": "ED50", "setting": "[1]", "value": 3.1, "unit": "mg/kg"}]}
{"smiles": "CCCCc1nc(C)c(CC(=S)N(C)C)c(=O)n1Cc1ccc(-c2ccccc2-c2nnn[nH]2)cc1", "note": "[Compound 2, 2-n-butyl-5-dimethylaminothiocarbonylmethyl-6-methyl-3-[[2'-(1H-tetrazol-5-yl)biphenyl-4-yl]methyl]-pyrimidine-4(3H)-one]", "values": [{"measurement": "ED50", "setting": "[1]", "value": 1.1, "unit": "mg/kg"}, {"measurement": "Mortality (death number/survival number)", "setting": "[2]; female, 1000 mg/kg oral, day 0", "value": "0/5"}, {"measurement": "Mortality (death number/survival number)", "setting": "[2]; female, 1000 mg/kg oral, day 1", "value": "0/5"}, {"measurement": "Mortality (death number/survival number)", "setting": "[2]; female, 1000 mg/kg oral, day 2", "value": "0/5"}, {"measurement": "Mortality (death number/survival number)", "setting": "[2]; female, 1000 mg/kg oral, day 3", "value": "0/5"}, {"measurement": "Mortality (death number/survival number)", "setting": "[2]; female, 1000 mg/kg oral, day 7", "value": "0/5"}, {"measurement": "Mortality (death number/survival number)", "setting": "[2]; female, 1000 mg/kg oral, day 14", "value": "0/5"}, {"measurement": "Mortality (death number/survival number)", "setting": "[2]; female, 1710 mg/kg oral, day 0", "value": "0/5"}, {"measurement": "Mortality (death number/survival number)", "setting": "[2]; female, 1710 mg/kg oral, day 1", "value": "0/5"}, {"measurement": "Mortality (death number/survival number)", "setting": "[2]; female, 1710 mg/kg oral, day 2", "value": "0/5"}, {"measurement": "Mortality (death number/survival number)", "setting": "[2]; female, 1710 mg/kg oral, day 3", "value": "0/5"}, {"measurement": "Mortality (death number/survival number)", "setting": "[2]; female, 1710 mg/kg oral, day 7", "value": "0/5"}, {"measurement": "Mortality (death number/survival number)", "setting": "[2]; female, 1710 mg/kg oral, day 14", "value": "0/5"}, {"measurement": "Mortality (death number/survival number)", "setting": "[2]; female, 2924 mg/kg oral, day 0", "value": "0/5"}, {"measurement": "Mortality (death number/survival number)", "setting": "[2]; female, 2924 mg/kg oral, day 1", "value": "0/5"}, {"measurement": "Mortality (death number/survival number)", "setting": "[2]; female, 2924 mg/kg oral, day 2", "value": "0/5"}, {"measurement": "Mortality (death number/survival number)", "setting": "[2]; female, 2924 mg/kg oral, day 3", "value": "0/5"}, {"measurement": "Mortality (death number/survival number)", "setting": "[2]; female, 2924 mg/kg oral, day 7", "value": "0/5"}, {"measurement": "Mortality (death number/survival number)", "setting": "[2]; female, 2924 mg/kg oral, day 14", "value": "0/5"}, {"measurement": "Final mortality (death number/total number)", "setting": "[2]; female, 5000 mg/kg oral", "value": "0/5"}, {"measurement": "Mortality (death number/survival number)", "setting": "[2]; female, 5000 mg/kg oral, day 0", "value": "0/5"}, {"measurement": "Mortality (death number/survival number)", "setting": "[2]; female, 5000 mg/kg oral, day 1", "value": "0/5"}, {"measurement": "Mortality (death number/survival number)", "setting": "[2]; female, 5000 mg/kg oral, day 2", "value": "0/5"}, {"measurement": "Mortality (death number/survival number)", "setting": "[2]; female, 5000 mg/kg oral, day 3", "value": "0/5"}, {"measurement": "Mortality (death number/survival number)", "setting": "[2]; female, 5000 mg/kg oral, day 7", "value": "0/5"}, {"measurement": "Mortality (death number/survival number)", "setting": "[2]; female, 5000 mg/kg oral, day 14", "value": "0/5"}, {"measurement": "Mortality (death number/survival number)", "setting": "[2]; male, 1000 mg/kg oral, day 0", "value": "0/5"}, {"measurement": "Mortality (death number/survival number)", "setting": "[2]; male, 1000 mg/kg oral, day 1", "value": "0/5"}, {"measurement": "Mortality (death number/survival number)", "setting": "[2]; male, 1000 mg/kg oral, day 2", "value": "0/5"}, {"measurement": "Mortality (death number/survival number)", "setting": "[2]; male, 1000 mg/kg oral, day 3", "value": "0/5"}, {"measurement": "Mortality (death number/survival number)", "setting": "[2]; male, 1000 mg/kg oral, day 7", "value": "0/5"}, {"measurement": "Mortality (death number/survival number)", "setting": "[2]; male, 1000 mg/kg oral, day 14", "value": "0/5"}, {"measurement": "Mortality (death number/survival number)", "setting": "[2]; male, 1710 mg/kg oral, day 0", "value": "0/5"}, {"measurement": "Mortality (death number/survival number)", "setting": "[2]; male, 1710 mg/kg oral, day 1", "value": "0/5"}, {"measurement": "Mortality (death number/survival number)", "setting": "[2]; male, 1710 mg/kg oral, day 2", "value": "0/5"}, {"measurement": "Mortality (death number/survival number)", "setting": "[2]; male, 1710 mg/kg oral, day 3", "value": "0/5"}, {"measurement": "Mortality (death number/survival number)", "setting": "[2]; male, 1710 mg/kg oral, day 7", "value": "0/5"}, {"measurement": "Mortality (death number/survival number)", "setting": "[2]; male, 1710 mg/kg oral, day 14", "value": "0/5"}, {"measurement": "Mortality (death number/survival number)", "setting": "[2]; male, 2924 mg/kg oral, day 0", "value": "0/5"}, {"measurement": "Mortality (death number/survival number)", "setting": "[2]; male, 2924 mg/kg oral, day 1", "value": "0/5"}, {"measurement": "Mortality (death number/survival number)", "setting": "[2]; male, 2924 mg/kg oral, day 2", "value": "0/5"}, {"measurement": "Mortality (death number/survival number)", "setting": "[2]; male, 2924 mg/kg oral, day 3", "value": "0/5"}, {"measurement": "Mortality (death number/survival number)", "setting": "[2]; male, 2924 mg/kg oral, day 7", "value": "0/5"}, {"measurement": "Mortality (death number/survival number)", "setting": "[2]; male, 2924 mg/kg oral, day 14", "value": "0/5"}, {"measurement": "Final mortality (death number/total number)", "setting": "[2]; male, 5000 mg/kg oral", "value": "0/5"}, {"measurement": "Mortality (death number/survival number)", "setting": "[2]; male, 5000 mg/kg oral, day 0", "value": "0/5"}, {"measurement": "Mortality (death number/survival number)", "setting": "[2]; male, 5000 mg/kg oral, day 1", "value": "0/5"}, {"measurement": "Mortality (death number/survival number)", "setting": "[2]; male, 5000 mg/kg oral, day 2", "value": "0/5"}, {"measurement": "Mortality (death number/survival number)", "setting": "[2]; male, 5000 mg/kg oral, day 3", "value": "0/5"}, {"measurement": "Mortality (death number/survival number)", "setting": "[2]; male, 5000 mg/kg oral, day 7", "value": "0/5"}, {"measurement": "Mortality (death number/survival number)", "setting": "[2]; male, 5000 mg/kg oral, day 14", "value": "0/5"}, {"measurement": "LD50", "setting": "[2]; female mice", "value": "> 5000", "unit": "mg/kg"}, {"measurement": "LD50", "setting": "[2]; male mice", "value": "> 5000", "unit": "mg/kg"}]}
{"smiles": "CCCCc1nc(C)c(CC(=S)N2CCOCC2)c(=O)n1Cc1ccc(-c2ccccc2-c2nn[nH]n2)cc1", "note": "[Compound 6]", "values": [{"measurement": "ED50", "setting": "[1]", "value": "< 3", "unit": "mg/kg"}]}
{"smiles": "CCCCc1nc(C)c(CC(=S)N(CC)CC)c(=O)n1Cc1ccc(-c2ccccc2-c2nnn[nH]2)cc1", "note": "[Compound 3, 2-n-butyl-5-diethylaminothiocarbonylmethyl-6-methyl-3-[[2'-(1H-tetrazol-5-yl)biphenyl-4-yl]methyl]-pyrimidine-4(3H)-one]", "values": [{"measurement": "ED50", "setting": "[1]", "value": "< 3", "unit": "mg/kg"}]}
